Measured values published in patent publication US20120270905A1, “FLUORINATED 2,6-DIALKYL-3,5-DICYANO-4-(1H-INDAZOL-5-YL)-1,4-DIHYDROPYRIDINES AND METHODS OF USE THEREOF” (BAYER PHARMA AKTIENGESELLSCHAFT, priority 2009, published 2012).

Key:
[1] = biological target: T1, Recombinant human c-Met protein (Homo sapiens, UniProt P08581); experiment: c-Met receptor tyrosine kinase activity assay (NADH read-out); assay type: biochemical; details: c-Met 30 nM, ATP 30 μM, 100 min at 32° C.
T1 construct: purchased Invitrogen
Protocol: c-Met Receptor Tyrosine Kinase Activity Assay (NADH Read-Out):
Recombinant human c-Met protein (Invitrogen, Carlsbad, Calif., USA) is used. As substrate for the kinase reaction the peptide KKKSPGEYVNIEFG (JPT, Germany) is used. For the assay, 1 μL of a 51-fold concentrated solution of the test compound in DMSO is pipetted into a white 384-well microtiter plate (Greiner Bio-One, Frickenhausen, Germany). 25 μL of a solution of c-Met (final concentration 30 nM) and pyruvate kinase/lactate dehydrogenase (Roche Diagnostics, Mannheim, Germany; final concentration 8 mg/L) in assay buffer [3-(N-morpholino)propanesulfonic acid (MOPS), 50 mM, pH 7; MgCl2, 10 mM; bovine serum albumin (BSA), 0.01%; Triton X 100, 0.01%; DTT, 2 mM] are added, and the mixture is incubated for 5 min at room temperature. Then, the kinase reaction is started by the addition of 25 μL of a solution of adenosine triphosphate (ATP, final concentration 30 μM), substrate (final concentration 100 μM), nicotinamide adenine dinucleotide (NADH, final concentration 50 μM) and dithiothreitol (DTT, final concentration 2 mM) in assay buffer, and the resulting mixture is incubated for a reaction time of 100 min at 32° C.
Subsequently, the amount of phosphorylated substrate is evaluated by measurement of the decrease of NADH fluorescence. Therefore, the fluorescence emissions at 465 nm after excitation at 340 nm is measured in a fluorescence reader, e.g. Tecan Ultra (Tecan, Männedorf, Switzerland). The data are normalised (enzyme reaction without inhibitor=0% inhibition; all other assay components but no enzyme=100% inhibition).
Some representative IC50 values are listed in Table 1 below together with corresponding data for a structurally related, non-fluorinated compound from prior art (cf. WO 2008/071451): […]

[2] = Caco-2 permeability assay; assay type: in vitro ADME; details: human, apical to basolateral, test concentration 2 μM, 2 h at 37° C., read-out: Caco-2 permeability PappA-B
Description: Caco-2 Permeability Assay:
The in vitro permeation of a test compound across a Caco-2 cell monolayer is a well-established assay system to predict the permeability from the gastro-intestinal tract [cf. P. Artursson and J. Karlsson: Correlation between oral drug absorption in humans and apparent drug permeability coefficients in human intestinal epithelial (Caco-2) cells, Biochem. Biophys. 175 (3), 880-885 (1991)]. The permeability of the compounds of the present invention in such Caco-2 cells was deter-mined as described below:
Human Caco-2 cells (ACC No. 169, DSMZ, German Collection of Microorganisms and Cell Cultures, Braunschweig, Germany) are seeded on 24-well insert plates and are allowed to grow for 14-16 days. For permeability studies, the test compounds are dissolved in DMSO and diluted to the final test concentration of 2 μM with transport buffer [Hanks' Buffered Salt Solution, Gibco/Invitrogen, further supplemented with glucose (final concentration 19.9 mM) and HEPES (final concentration 9.8 mM)]. For determination of the apical to basolateral permeability (PappA-B), the test compound solution is added to the apical side of the cell monolayer and transport buffer to the basolateral side of the monolayer; for determination of the basolateral to apical permeability (PappB-A), the test compound solution is added to the basolateral side of the cell monolayer and transport buffer to the apical side of the monolayer. Samples are taken from the donor compartment at the beginning of the experiment to confirm mass balance. After an incubation of 2 h at 37° C., samples are taken from both compartments. Samples are analyzed by LC-MS/MS, and the apparent permeability coefficients are calculated. Lucifer Yellow permeability is assayed for each cell monolayer to ensure cell monolayer integrity, and the permeability of Atenolol (low permeability marker) and Sulfasalazine (marker for active excretion) is determined for each batch as quality control. […]

[3] = biological target: T2, recombinant kinase domain of the human c-Met (amino acids 960-1390) (Homo sapiens, UniProt P08581); experiment: c-Met receptor tyrosine kinase homogeneous time-resolved fluorescence assay (alternative format); assay type: biochemical; details: HTRF format; ATP 10 μM, 30 min at 22° C.
T2 construct: kinase domain of the human c-Met (amino acids 960-1390); His6 (N); made in house; host or cells: insect cells (SF21)
Description: c-Met Receptor Tyrosine Kinase Homogeneous Time-Resolved Fluorescence Assay (Alternative Format):
The N-terminally His6-tagged recombinant kinase domain of the human c-Met (amino acids 960-1390), expressed in insect cells (SF21) and purified by Ni-NTA affinity chromatography and consecutive size exclusion chromatography (Superdex 200), is used. Alternatively, commercially available c-Met (Millipore) can be used. As substrate for the kinase reaction, the biotinylated poly-Glu,Tyr (4:1) copolymer (#61GT0BLC, Cis Biointernational, Marcoule, France) is used.
For the assay, 50 nL of a 100-fold concentrated solution of the test compound in DMSO is pipetted into a black low-volume 384-well microtiter plate (Greiner Bio-One, Frickenhausen, Germany). […]
The resulting mixture is incubated for 1 h at 22° C. to allow the binding of the biotinylated phosphorylated peptide to the streptavidine-XLent and the PT66-Eu-chelate. Subsequently, the amount of phosphorylated substrate is evaluated by measurement of the resonance energy transfer from the PT66-Eu-chelate to the streptavidine-XLent. Therefore, the fluorescence emissions at 620 nm and 665 nm after excitation at 350 nm are measured in an HTRF reader, e.g. Rubystar (BMG Lab-technologies, Offenburg, Germany) or Viewlux (Perkin-Elmer). […]

T1 sequence (P08581 25-1390): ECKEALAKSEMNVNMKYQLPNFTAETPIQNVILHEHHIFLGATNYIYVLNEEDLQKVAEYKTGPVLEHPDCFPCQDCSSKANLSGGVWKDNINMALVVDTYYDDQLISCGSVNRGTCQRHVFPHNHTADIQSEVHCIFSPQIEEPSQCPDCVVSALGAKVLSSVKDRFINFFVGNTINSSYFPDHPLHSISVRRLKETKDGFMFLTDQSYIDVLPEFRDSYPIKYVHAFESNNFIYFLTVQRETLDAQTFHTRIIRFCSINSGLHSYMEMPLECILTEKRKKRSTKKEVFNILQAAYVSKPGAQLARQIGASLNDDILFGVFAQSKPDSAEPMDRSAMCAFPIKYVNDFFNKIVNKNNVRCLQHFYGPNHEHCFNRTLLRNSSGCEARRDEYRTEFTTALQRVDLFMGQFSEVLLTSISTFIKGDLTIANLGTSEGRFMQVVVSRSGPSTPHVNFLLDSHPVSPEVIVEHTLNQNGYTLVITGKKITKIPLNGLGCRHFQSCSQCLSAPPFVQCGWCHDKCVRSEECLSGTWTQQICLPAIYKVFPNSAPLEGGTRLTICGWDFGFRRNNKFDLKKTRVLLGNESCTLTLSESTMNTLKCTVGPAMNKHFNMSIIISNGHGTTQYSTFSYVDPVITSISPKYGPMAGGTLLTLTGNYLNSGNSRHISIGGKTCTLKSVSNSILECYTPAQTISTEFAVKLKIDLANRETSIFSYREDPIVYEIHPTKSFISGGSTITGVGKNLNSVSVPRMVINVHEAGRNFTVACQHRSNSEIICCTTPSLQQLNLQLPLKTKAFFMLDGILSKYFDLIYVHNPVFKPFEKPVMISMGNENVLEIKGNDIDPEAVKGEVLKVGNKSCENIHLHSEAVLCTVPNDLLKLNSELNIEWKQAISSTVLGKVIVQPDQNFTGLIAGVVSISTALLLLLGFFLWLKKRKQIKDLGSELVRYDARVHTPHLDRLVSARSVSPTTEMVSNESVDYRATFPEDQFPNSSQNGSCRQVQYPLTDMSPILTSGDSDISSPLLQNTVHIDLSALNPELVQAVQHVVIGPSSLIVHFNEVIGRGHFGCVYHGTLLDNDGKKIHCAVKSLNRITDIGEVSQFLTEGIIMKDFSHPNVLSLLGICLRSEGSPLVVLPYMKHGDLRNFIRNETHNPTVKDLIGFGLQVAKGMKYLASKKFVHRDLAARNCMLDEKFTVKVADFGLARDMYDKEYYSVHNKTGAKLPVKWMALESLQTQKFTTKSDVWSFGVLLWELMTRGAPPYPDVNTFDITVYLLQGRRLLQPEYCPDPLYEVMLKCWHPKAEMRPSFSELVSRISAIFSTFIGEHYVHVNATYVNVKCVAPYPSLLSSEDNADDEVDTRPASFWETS
T2 sequence (P08581 960-1390): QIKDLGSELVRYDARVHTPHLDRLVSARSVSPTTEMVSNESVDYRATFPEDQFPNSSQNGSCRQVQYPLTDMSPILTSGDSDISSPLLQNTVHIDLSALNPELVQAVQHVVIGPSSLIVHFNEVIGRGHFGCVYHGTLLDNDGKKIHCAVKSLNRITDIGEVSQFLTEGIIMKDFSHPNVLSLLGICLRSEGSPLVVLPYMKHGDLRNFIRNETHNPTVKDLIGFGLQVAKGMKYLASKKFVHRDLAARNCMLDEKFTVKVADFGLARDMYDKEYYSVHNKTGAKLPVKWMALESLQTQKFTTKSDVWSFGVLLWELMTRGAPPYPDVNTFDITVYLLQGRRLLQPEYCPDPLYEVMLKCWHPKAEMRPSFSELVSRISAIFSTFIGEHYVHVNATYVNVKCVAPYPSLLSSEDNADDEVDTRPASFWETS

Compound | IC50 [1] [nM] | Papp A→B at 2 h, 2 μM [2] [×10⁻⁶ cm/s] | IC50 [3] [nM]
Cc1n[nH]c2ccc(C3C(C#N)=C(CCC(C)C)NC(C(F)(F)F)=C3C#N)cc12 (racemic) [Example 1, 2-(3-Methylbutyl)-4-(3-methyl-1H-indazol-5-yl)-6-(trifluoromethyl)-1,4-dihydropyridine-3,5-dicarbonitrile] | 16 | 21.7 | 
Cc1n[nH]c2cc(F)c(C3C(C#N)=C(CCC(F)(F)F)NC(C(F)(F)F)=C3C#N)cc12 (racemic) [Example 7, 4-(6-Fluoro-3-methyl-1H-indazol-5-yl)-2-(trifluoromethyl)-6-(3,3,3-trifluoropropyl)-1,4-dihydro-pyridine-3,5-dicarbonitrile] | 52 | 20.4 | 
Cc1n[nH]c2cc(F)c(C3C(C#N)=C(CCC(F)(F)F)NC(C(F)F)=C3C#N)cc12 (racemic) [Example 10, 2-(Difluoromethyl)-4-(6-fluoro-3-methyl-1H-indazol-5-yl)-6-(3,3,3-trifluoropropyl)-1,4-dihydropyridine-3,5-dicarbonitrile] | 26 |  | 11
CCC1=C(C#N)C(c2ccc3[nH]nc(C)c3c2)C(C#N)=C(C(F)(F)F)N1 (centres unmarked) [Example 4, 2-Ethyl-4-(3-methyl-1H-indazol-5-yl)-6-(trifluoromethyl)-1,4-dihydropyridine-3,5-dicarbonitrile] |  |  | 11
CCC1=C(C#N)C(c2ccc3[nH]nc(C)c3c2)C(C#N)=C(C(F)F)N1 (centres unmarked) [Example 13, 2-(Difluoromethyl)-6-ethyl-4-(3-methyl-1H-indazol-5-yl)-1,4-dihydropyridine-3,5-dicarbonitrile] | 9 | 25.9 | 
Cc1n[nH]c2ccc(C3C(C#N)=C(CCC(F)(F)F)NC(C(F)F)=C3C#N)cc12 (centres unmarked) [Example 14, 2-(Difluoromethyl)-4-(3-methyl-1H-indazol-5-yl)-6-(3,3,3-trifluoropropyl)-1,4-dihydropyridine-3,5-dicarbonitrile] | 17 |  | 
N#CC1=C(CCC(F)(F)F)NC(C(F)(F)F)=C(C#N)C1c1ccc2[nH]ncc2c1 (centres unmarked) [Example 16, 4-(1H-Indazol-5-yl)-2-(trifluoromethyl)-6-(3,3,3-trifluoropropyl)-1,4-dihydro-pyridine-3,5-dicarbonitrile] | 29 |  | 
